From patent publication US6497862B2, “Composition for inhibiting body odor and uses thereof” (Kabushiki Kaisha Hayashibara, priority 2000, dated 2002)

What was measured:
[1] = Panel test of smell, 9-hexadecanoic acid at 37° C. (Experiment 6); design: key: +++: the same or higher level of odor; ++: slightly lower level of odor; +: clearly lower level of odor than that of the control system; settings: 37° C., 9,000 lux
Description: (§1) Upon the HSG samples, the level of a body-odor-like smell was examined on a panel test consisting of six professional panels; the panels directly smelled the samples from each glass vial and judged the level of the smells for each samples with test saccharides based on the following four ranks, i.e., the same or higher level of odor (+++), slightly lower level of odor (++), clearly lower level of odor (+), and odorless (−) as compared with the control system. Summing up the data from the panels, the samples tested were totally evaluated.
One hundred milligrams of 9-hexadecanoic acid as a fatty acid, 500 mg of a cellulose powder, and 1.25 ml of 0.12 M phosphate buffer (pH 6.0) were placed in a 20-ml glass vial. To the glass vial was added 100 mg of either of trehalose, maltitol and sucrose as a test saccharide, followed by sealing with a butyl rubber cap for use as a test system. As a control system, there provided a glass vial with no test saccharide that differed from the test systems only in this point. In both the test- and control-systems, they were respectively provided in doublet.
These glass vials were allowed to stand in a 37° C.-thermostatic-bath under the irradiation of 9,000 lux by a fluorescent lamp. At 3-days of standing, one of each pair of the vials containing the same composition, and 7-days of standing, the other vial of each resting pair of the vials were transferred to a heat block, which had been preheated to 80° C. and then kept therein for five minutes, followed by analyzing the content of 2-nonenal in HSG in each vial by GC similarly as in Experiment 2. After the collection of HSG, the smell from glass vials was evaluated by panel test in accordance with the method in Experiment 2.

[2] = Dispersion of 2-nonenal, GC of HSG (Experiment 4); settings: 10 mg 2-nonenal + 100 mg test saccharide, 80° C. 5 min (dispersion test); control 8.67
Method: Ten milligrams of 2-nonenal, 500 mg of a cellulose powder, and 1.25 ml of 0.12 M phosphate buffer (pH 6.0) were placed in a 20-ml glass vial. To the glass vial was added 100 mg of either of trehalose, maltitol and sucrose as a test saccharide, followed by sealing with a butyl rubber cap. As a control system, there provided a glass vial with no test saccharide that differed from the test systems only in this point. These glass vials were kept in a heat block, preheated to 80° C. After 5-min standing, the glass vials were sampled by two milliliters of HSG with a gas syringe. The content of 2-nonenal in the sampled HSG was measured by GC in accordance with the method in Experiment 2.

[3] = Formation of 2-nonenal from linoleic acid by heating, GC of HSG (Experiment 2); settings: linoleic acid + 100 mg test saccharide, heated at 105° C. for one hour; control 5.75
Method: (§2) One hundred milligrams of oleic acid as a fatty acid, 500 mg of cellulose powder, and 1.25 ml of 0.12 M phosphate buffer (pH 6.0) were placed in a 20-ml glass vial. To the glass vial were added 100 mg of either of crystalline trehalose hydrate, crystalline maltitol anhydride, crystalline sorbitol anhydride, crystalline sucrose anhydride, crystalline maltose anhydride, and crystalline neotrehalose hydride as test saccharides (throughout Experiments 1 to 6, these saccharides are designated as “trehalose”, “maltitol”, sorbitol”, “sucrose”, “maltose”, and “neotrehalose”, respectively), followed by sealing the glass vial with a butyl rubber. As a control system, there provided a glass vial, with no a test saccharide, which differed from the test glass vial on this point. These glass vials were heated at 105° C. for one hour, cooled to ambient temperature, and kept in an aluminum heat-block (abbreviated as “heat block, hereinafter”), which had been preheated to 80° C. After 5-minutes standing, two milliliters of a head space gas (abbreviated as “HSG”, hereinafter) were collected from each glass vial with a syringe.
(§3) The collected HSG was analyzed for content of volatile aldehydes on gas chromatography (abbreviated as “GC” hereinafter) using “GAS CHROMATOGRAPH GC-14A”, as a GC apparatus; “CAPILLARY COLUMN SUPELCO-WAX”, having 0.25 mm in inner diameter, 60 m in length, and 0.25 μm in thickness, commercialized by Supelco Inc., Tokyo, Japan, as a column for analysis; helium gas at a flow rate of one ml/min as a carrier gas, under temperature conditions of 250° C. for injecting a sample and of a column thermostatic bath temperature being kept at 80° C. for five minutes and then increased up to 240° C. at a rate of 5° C./min. As standard specimens, propanal, butanal, and hexanal as volatile aldehydes were used. Based on the peak area obtained from gas chromatography for the standard specimens and HSG samples, the content of respective volatile aldehydes in HSG was calculated.
(§4) The content of 2-nonenal in HSG was measured by GC similarly as in Experiment 1 except that linoleic acid was used as a fatty acid and 2-nonenal, a volatile aldehyde, was used as a standard substance. The level of a body-odor-like smell, particularly with respect to KAREI-SHU, in each sample was evaluated by panel test in accordance with the method in Experiment 1.

[4] = Panel test of body-odor-like smell, oleic acid heated (Experiment 1); design: key: +++: the same or higher level of odor; ++: slightly lower level of odor; +: clearly lower level of odor than that of the control system; settings: oleic acid heated at 105° C. for one hour; six panels, compared with control system
Method: as §2, §1

[5] = Formation of 2-nonenal from 9-hexadecanoic acid by heating, GC of HSG (Experiment 3); settings: 9-hexadecanoic acid + 100 mg test saccharide, heated at 105° C. for one hour; control 25.7
Method: as §2, §3
as §4, with “9-hexadecanoic acid or palmitoleic” for “linoleic”, “of” for “of a”

SMILES	Evaluation of panel test ([1]; 3-days of standing)	Evaluation of panel test ([1]; 7-days of standing)	Content of 2-nonenal in HSG [2]	Content of 2-nonenal in HSG [3]	Evaluation of panel test [4]	Content of 2-nonenal in HSG [5]
OC[C@H]1O[C@@](CO)(O[C@H]2O[C@H](CO)[C@@H](O)[C@H](O)[C@H]2O)[C@@H](O)[C@@H]1O [Sucrose, sucrose]	++	+++	8.70 µg/mL	5.41 µg/mL	+++	24.4 µg/mL
OC[C@H]1O[C@H](O[C@H]2O[C@H](CO)[C@@H](O)[C@H](O)[C@H]2O)[C@H](O)[C@@H](O)[C@@H]1O [Trehalose, trehalose]	–	+	8.60 µg/mL	1.27 µg/mL	+	4.10 µg/mL
OC[C@@H](O)[C@@H](O[C@H]1O[C@H](CO)[C@@H](O)[C@H](O)[C@H]1O)[C@H](O)[C@@H](O)CO [Maltitol, maltitol]	–	+	8.27 µg/mL	1.73 µg/mL	++	6.17 µg/mL
